Laboratory results from patent US11612652B2, “Lipids as synthetic vectors to enhance antigen processing and presentation ex-vivo in dendritic cell therapy” (PDS Biotechnology Corporation, priority 2015, dated 2023).

What was measured:
[1] = test system: TC-1 tumors; test: Established TC-1 tumor model: tumor microenvironment, tumor volume, ELISPOT; assay type: in vivo, C57 mice; conditions: Day 19 flow cytometry
Method: C57 mice were divided into the following groups of 8 mice per group: R-DOTAP+HPV16 E7 peptide KF18 ([…]) (SEQ ID NO: 4) , GM-CSF+HPV16 E7 peptide KF18, R-DOTAP, GM-C SF, HPV16 E7 peptide KF18, untreated. 1×10^5 TC-1 tumor cells were injected into the flank of the mice on day 0. The various formulations were administered on Days 12 and 19 after tumor implantation. On day 19 4-5 mice per group were sacrificed and a number of evaluations performed to evaluate the immunology of the tumor microenvironment.
RF9 specific dextramer staining and flow cytometry were utilized to quantify the number of HPV-specific CD8+ T-cells that had infiltrated into the tumor micro-environment. The study quantified the number of CD8+ T cells specific to the mouse epitope RF9. These CD8+ T cells were measured as a percentage of all immune cells (CD45, CD3 and CD8) present in the tumor. Antigen specific T cells infiltrating into the tumor were measured using RF9 specific dextramers by flow cytometry. […] Data represents mean±SEM of 4-5 mice in each group.
On Day 19 flow cytometry was used to study the immuno-suppressive tumor microenvironment, specifically the regulatory T cell population. T regulatory cells (CD45+CD3+CD4+CD25+Foxp3+) cells infiltrated into tumors on day 14 and day 19.
Of critical importance to the clinical efficacy of any immunotherapy is the ratio of immune suppressive cells to tumor targeting CD8+ T cells within the tumor microenvironment. A lower ratio of immune suppressor cells to CD8+ T cells promotes improved prognosis for anti-tumor benefit. […] Cationic lipids appear to promote the preferential expansion of the right phenotype of effector T-cells in preference to Tregs.
The various formulations were evaluated for their impact on the established TC-1 tumors in the same study. […] Tumor volumes were measured using calipers. The naïve mice group are tumor bearing mice that remained untreated. The HPV16 E7 peptide used in the vaccine is KF18. […]
In this study, IFN-γ ELISPOT studies were also performed to quantify and understand the “quality” of tumor-specific T-cell generated. […]

[2] = test system: TC1 epithelial cells; test: DQ-OVA uptake and processing by epithelial cell line; assay type: cell-based, mouse; conditions: identical conditions as the BMDC
Method: This uptake and processing was inhibited at 4° C. confirming that active cytoskeletal rearrangements are required for this type of uptake. […] The effect of R-DOTAP was concentration dependent with 50 uM showing the greatest effect. To determine if the R-DOTAP enhancement of protein uptake is cell dependent, a mouse epithelial cell line was incubated with DQ-OVA under identical conditions as the BMDC. […] Further, they indicate that this enhancement is selective for dendritic cells and not other, non-antigen presenting cell types.

Question: Which “ability to reduce the population of Tregs in tumors” value [1] does the source give for `CCCCCCCC/C=C\CCCCCCCC(=O)OCC(C[N+](C)(C)C)OC(=O)CCCCCCC/C=C\CCCCCCCC` (centres unmarked) [R-DOTAP, 1,2-dioleoyl-3-trimethylammonium propane] here?
Answer: statistical significance was not achieved

Question: What about the “DQ-OVA uptake and processing in TC1 epithelial cells” value [2] of the same compound?
Answer: only observed in DC and not in TC1 epithelial cells
